16 molecules from PubChem BioAssay (NCI) can be followed below.

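Results reflect a 48-hour exposure of cells in 96-well plates to compound at five concentrations. TGI marks complete inhibition of growth.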

Some test systems named below: SK-MEL-5 melanoma; SR leukemia; SK-MEL-28 melanoma; EKVX NSCLC; HL-60(TB) leukemia; SF-295 CNS; HCT-15 colon; DU-145 prostate; SF-539 CNS; T-47D breast; MDA-MB-231 breast.
Common to all, as to test: NCI tumour cell line growth inhibition, 48 h

In the case of `Brc1ccc(-c2ccc(-c3ccc(Br)s3)s2)s1`, the TGI in the experiment with SK-MEL-5 melanoma, in the experiment with SR leukemia, in the experiment with SK-MEL-28 melanoma, in the experiment with EKVX NSCLC, in the experiment with HL-60(TB) leukemia and with SF-295 CNS was above 100 µM in each case. The TGI in the experiment with HCT-15 colon, in the experiment on DU-145 prostate, with SF-539 CNS and with T-47D breast was above 100 µM each time.
As to `N#Cc1nn(-c2ccc(Cl)cc2)c(N)c2c(=N)n3nc(-c4ccccc4)cc3nc12`, the TGI in the experiment on SR leukemia is 10.7 µM; in the experiment with EKVX NSCLC, above 100 µM; with HL-60(TB) leukemia, above 100 µM; in the experiment on SF-295 CNS, above 24.5 µM; in the experiment on HCT-15 colon, above 100 µM.
Regarding `O=C(/C=C1\N=C(c2ccccc2)N(c2ccc3c(c2)Sc2cc(N4C(=O)/C(=C/C(=O)/C=C/c5ccccc5)N=C4c4ccccc4)ccc2N3)C1=O)/C=C/c1ccccc1`, the TGI is 33.5 µM in the experiment on SK-MEL-5 melanoma; above 100 µM with SK-MEL-28 melanoma; above 100 µM in the experiment on EKVX NSCLC; above 100 µM in the experiment with HL-60(TB) leukemia; 57 µM in the experiment with SF-295 CNS; above 100 µM in the experiment with HCT-15 colon. Moreover, the TGI in the experiment with DU-145 prostate was above 100 µM; in the experiment with MDA-MB-231 breast, 90 µM; with T-47D breast, above 100 µM.
For `C[C@H](NC(=O)OC1C2C=CC(O)C1CC2)c1ccccc1` (stereo not given in full), the TGI in the experiment with SK-MEL-5 melanoma is above 100 µM; with SR leukemia, 46.2 µM; in the experiment with SK-MEL-28 melanoma, above 100 µM; in the experiment with EKVX NSCLC it was above 100 µM; in the experiment with HL-60(TB) leukemia, above 100 µM; in the experiment on SF-295 CNS, above 100 µM. The TGI with HCT-15 colon is 33.6 µM; in the experiment with SF-539 CNS it was above 100 µM.
For the molecule `COc1cccc(-n2nnc3c(N)nc(N)nc32)c1`, the TGI in the experiment on SK-MEL-5 melanoma, with SK-MEL-28 melanoma, in the experiment with EKVX NSCLC, in the experiment on HL-60(TB) leukemia, in the experiment on SF-295 CNS and in the experiment on HCT-15 colon was above 100 µM each time. The TGI in the experiment with DU-145 prostate, in the experiment on MDA-MB-231 breast, in the experiment on SF-539 CNS and with T-47D breast was above 100 µM each time.
In the case of `O=C(O)CCCN1CCCCC1`, the TGI in the experiment with SK-MEL-5 melanoma, in the experiment with SR leukemia, with SK-MEL-28 melanoma, with EKVX NSCLC, with SF-295 CNS and in the experiment with HCT-15 colon was above 100 µM each time. Further, the TGI with DU-145 prostate, in the experiment on MDA-MB-231 breast and with T-47D breast was above 100 µM in each case.
Turning to `Cc1c(Cl)cccc1NC(=O)C(=O)C1C(=O)NC(=O)NC1=O`, the TGI in the experiment on SK-MEL-5 melanoma, in the experiment with SR leukemia, with SK-MEL-28 melanoma, with EKVX NSCLC, with HL-60(TB) leukemia and with SF-295 CNS was above 100 µM each time. For the same molecule, the TGI in the experiment on HCT-15 colon and in the experiment with SF-539 CNS was above 100 µM each time.
Consider `CCOC(=O)[C@H]1Nc2ccc(O)cc2C2c3ccccc3CC21` (stereo not given in full), for which the TGI with SK-MEL-5 melanoma is above 100 µM; in the experiment on SK-MEL-28 melanoma, 98 µM; in the experiment on EKVX NSCLC it was above 100 µM; in the experiment with HCT-15 colon, above 100 µM; in the experiment on SF-539 CNS it was above 100 µM.
Regarding `OC(Cn1cncn1)(Cn1cncn1)c1ccc(Cl)cc1Cl`, the TGI with SK-MEL-5 melanoma, in the experiment on SR leukemia, in the experiment with SK-MEL-28 melanoma, in the experiment with HL-60(TB) leukemia, with SF-295 CNS and in the experiment with HCT-15 colon was above 100 µM throughout. This molecule returned a TGI with SF-539 CNS above 100 µM.
On to `CC(=O)OCCOCNC(=S)N/N=C(\C)c1ccco1`, for which the TGI in the experiment with SK-MEL-5 melanoma, with SK-MEL-28 melanoma, in the experiment on EKVX NSCLC, in the experiment with SF-295 CNS, with HCT-15 colon and in the experiment with SF-539 CNS was above 100 µM each time.
As for `NS(=O)(=O)c1ccc(CNC(=S)NC(=O)Nc2ccc(Cl)c(Cl)c2)cc1`, the TGI is 33 µM with SK-MEL-5 melanoma; 69.8 µM in the experiment on SK-MEL-28 melanoma; 33.2 µM in the experiment with SF-295 CNS; 31.8 µM with HCT-15 colon; above 100 µM with DU-145 prostate; 25.5 µM in the experiment with MDA-MB-231 breast. For the same molecule, the TGI worked out at 41.5 µM in the experiment on SF-539 CNS and 60.2 µM in the experiment with T-47D breast.
For the molecule `COc1ccc(N(C(=O)OC(C)(C)C)[C@@H]2C(C)=C[C@H]([S@@](=O)c3ccc(C)cc3)[C@@H]3C(=O)N(C)C(=O)[C@@H]32)cc1`, the TGI in the experiment on SK-MEL-5 melanoma is 43.7 µM; in the experiment with SK-MEL-28 melanoma, 41.3 µM; in the experiment on EKVX NSCLC, 9.85 µM; with HL-60(TB) leukemia it was 47.5 µM; with SF-295 CNS, 35.9 µM; in the experiment on HCT-15 colon, above 100 µM. In addition, the TGI turned out to be 81.8 µM with DU-145 prostate, 46.4 µM with MDA-MB-231 breast, 43.5 µM with SF-539 CNS and 99.8 µM in the experiment with T-47D breast.
Turning to `CC(C)(C)NNc1c([N+](=O)[O-])cnn(-c2ccccc2)c1=O`, the TGI is 11.1 µM in the experiment with SK-MEL-5 melanoma; 4.67 µM in the experiment on SR leukemia; 5.79 µM with SK-MEL-28 melanoma; 25.6 µM with EKVX NSCLC; 5.24 µM in the experiment with HL-60(TB) leukemia; 20.1 µM in the experiment with SF-295 CNS. Further, the TGI came out at 10.1 µM with HCT-15 colon, 26 µM in the experiment on DU-145 prostate, 27.1 µM with SF-539 CNS and 4.36 µM in the experiment with T-47D breast.
For `C[Si](C)(C)C#C[I+]c1ccccc1`, the TGI is above 100 µM in the experiment with SK-MEL-5 melanoma; above 100 µM in the experiment on SK-MEL-28 melanoma; above 100 µM with EKVX NSCLC; 61.3 µM in the experiment on HL-60(TB) leukemia; above 100 µM in the experiment with SF-295 CNS; 56.1 µM in the experiment with HCT-15 colon. This molecule also came in with a TGI in the experiment on SF-539 CNS of 79.3 µM.
Take `CCOC(=O)Cc1csc(/N=C\c2c(O)c3ccccc3oc2=O)n1`: the TGI with SK-MEL-5 melanoma is 52.6 µM; with SR leukemia, 52 µM; in the experiment with SK-MEL-28 melanoma, above 100 µM; in the experiment on EKVX NSCLC it was above 100 µM; with HL-60(TB) leukemia it was 7.43 µM; with SF-295 CNS it was 68.2 µM. The TGI with HCT-15 colon is above 100 µM; with SF-539 CNS, 56.7 µM.
For `CCCCCCCCCCCCCC(=O)OCC1OC(OC)C(NC(=O)N(CCCl)N=O)C(O)C1O` (stereo not given), the TGI in the experiment on SK-MEL-5 melanoma is 45.1 µM; with SR leukemia, 26.7 µM; in the experiment with SK-MEL-28 melanoma, 59.4 µM; with HCT-15 colon, above 100 µM; in the experiment with SF-539 CNS, 12.9 µM.
